# Laboratory results taken from US20220315624A1, “THIOSTREPTON ANALOGS AND METHODS OF MAKING AND USING SAME” (YALE UNIVERSITY, priority 2019, published 2022).
# Like-named read-outs stand apart in the source and are kept apart here.
# How the values were obtained:
# E. coli ATCC 25922 [1] = experiment: MIC broth microdilution; format: cell-based
# Protocol: (§1) Twenty-four test agents were shipped to Micromyx and stored at −20° C. until assayed. The compounds were dissolved in 100% DMSO at 6.46 mg/mL prior to testing. Comparator drugs were supplied by Micromyx and were handled as described below:
# (§2) The test organisms for the assay were recent clinical isolates or reference strains acquired from the American Type Culture Collection (ATCC; Manassas, Va.). Upon receipt, the isolates were streaked onto Trypticase Soy Agar II+5% sheep blood (TSAB). Colonies were harvested from the plates and a cell suspension was prepared in Trypticase Soy Broth containing cryoprotectant. Aliquots were then frozen at −80° C. Prior to the assay, the frozen seeds of all bacterial isolates to be tested were thawed and streaked for isolation onto TSAB (BD/BBL, Sparks, Md.; Lot No. 9011894), and were incubated overnight at 35° C.
# (§3) The test medium for all isolates was cation-adjusted Mueller Hinton broth (CAMHB; BD/BBL; Lot No. 8190586). CAMHB (Cation Adjusted Mueller Hinton Broth) was supplemented with 3% (v/v) lysed horse blood (LHB; Hemostat, Dixon, Calif.; Lot No. 474990) for the testing of streptococci.
# (§4) MIC values were determined using a broth microdilution method as recommended by CLSI. Automated liquid handlers (Multidrop 384, Labsystems, Helsinki, Finland; Biomek 2000 and Biomek F/X, Beckman Coulter, Fullerton Calif.) were used to conduct serial dilutions and make liquid transfers.
# (§5) The wells of standard 96-well microdilution plates (Costar 3795, Corning Inc., Corning, N.Y.) were filled with 150 μL of the appropriate diluent in columns 2-12 on the Multidrop 384 (DMSO for the thiostrepton analogs, deionized H2O for vancomycin and ceftazidime). These plates were used to prepare the drug “mother plate” which provided the serial drug dilutions for the replicate “daughter plates”. The compounds (300 μL) were dispensed at 101× the highest concentration to be tested into the appropriate row of the “mother plate”. The Biomek 2000 was used to transfer 150 μL of each stock solution from the wells in Column 1 of the mother plate to make ten subsequent 2-fold serial dilutions. The wells of Column 12 contained no drug and served as the organism growth control wells. The daughter plates were loaded with 190 μL of test medium using the Multidrop 384.
# (§6) The daughter plates were prepared on the Biomek F/X instrument which transferred […] of drug solution from each well of the mother plate to each corresponding well of each daughter plate in a single step. The wells of the daughter plates ultimately contained 190 μL of media, 2 μL of drug solution, and 10 μL of inoculum prepared as described below. The final concentration of DMSO (if used as a solvent) in the test well was 1%.
# (§7) A standardized inoculum of each organism was prepared per CLSI methods. A suspension of organisms from a fresh plate was prepared in CAMHB to equal the turbidity of a 0.5 McFarland standard. The suspensions were diluted 1:20 in CAMHB, or in the case of streptococci CAMHB with LHB. The inoculum for each organism was dispensed into sterile reservoirs divided by length (Beckman Coulter), and the Biomek 2000 was used to inoculate the plates. Daughter plates were placed on the Biomek 2000 work surface reversed so that inoculation took place from low to high drug concentration. The Biomek 2000 delivered 10 μL of standardized inoculum into each well. These dilutions yielded a final cell concentration in the daughter plates of approximately 5.0×10^5 CFU/mL.
# (§8) Plates were stacked 3 high, covered with a lid on the top plate, placed in plastic bags, and incubated at 35° C. for 16-20 hr for all organisms except streptococci which were incubated for 20-24 hr. Following incubation, the microplates were removed from the incubator and viewed from the bottom using a plate viewer. The MIC was read and recorded as the lowest concentration of drug that inhibited visible growth of the organism. […]
# [2] = system: E. faecalis ATCC 29212 VSE; experiment: MIC broth microdilution; format: cell-based; settings: Enterococcus faecalis, ATCC29212
# Protocol: as §1, §2, §3, §4, §5, §6, §7, §8
# E. faecalis MMX 486 VRE = experiment: MIC broth microdilution; format: cell-based; settings: Enterococcus faecalis
# Protocol: as §1, §2, §3, §4, §5, §6, §7, §8
# E. faecium MMX 485 VRE = experiment: MIC broth microdilution; format: cell-based; settings: Enterococcus faecium
# Protocol: as §1, §2, §3, §4, §5, §6, §7, §8
# E. faecium MMX 708 VSE = experiment: MIC broth microdilution; format: cell-based; settings: Enterococcus faecium, MMX708VSE
# Protocol: as §1, §2, §3, §4, §5, §6, §7, §8
# [3] = system: S. aureus ATCC 29213 MSSA; experiment: MIC broth microdilution; format: cell-based; settings: Staphylococcus aureus
# Protocol: as §1, §2, §3, §4, §5, §6, §7, §8
# S. aureus MMX 8088 MRSA = experiment: MIC broth microdilution; format: cell-based; settings: Staphylococcus aureus
# Protocol: as §1, §2, §3, §4, §5, §6, §7, §8
# [4] = system: S. pneumoniae ATCC 49619 PISP; experiment: MIC broth microdilution; format: cell-based; settings: Streptococcus pneumoniae, ATCC49619, 20 h
# Protocol: as §1, §2, §3, §4, §5, §6, §7, §8
# S. pyogenes ATCC 19615 = experiment: MIC broth microdilution; format: cell-based; settings: Streptococcus pyogenes, ATCC19615, 20 h
# Protocol: as §1, §2, §3, §4, §5, §6, §7, §8
# [5] = system: S. aureus ATCC 29213 MSSA; settings: range in parentheses; cited from earlier work
# E. coli ATCC 25922 [6] = settings: range in parentheses; cited from earlier work
# [7] = Aqueous solubility analysis in MOPS buffer; format: physicochemical; settings: after 24 hours in 10 mM aqueous MOPS buffer
# Protocol: A 2 dram vial was loaded with ˜0.5 mg of a thiostrepton derivative and suspended in ˜4 mL of aqueous 10 mM MOPS buffer (pKa 7.2). The suspension was stirred vigorously for 24 h to ensure equilibration, then filtered through a […] centrifuge filtration unit. A 3.0 mL aliquot was concentrated, and the dried residue was diluted with 0.30 mL of 1:1 1,4-dioxane/H2O (10× original concentration necessitated by detection limits). The total UV absorbance (200-300 nm) was measured in triplicate by UPLC runs with a photodiode array detector. A calibration curve for each compound was created using data points from 3 trials each of concentrations in 1:1 1,4-dioxane/H2O ranging from […]. These concentrations were plotted against their respective average absorbances. The experimental concentration of each compound was calculated by dividing the found μg/mL value by the residue concentration factor of 10 to yield the actual solubility value.
# S. aureus isolates = experiment: MIC broth microdilution, S. aureus isolates; format: cell-based; settings: for MIC: Staphylococcus aureus, read-out: MIC values against S. aureus isolates
# Protocol: as §1, §2, §3, §4, §5, §6, §7, §8
# [8] = system: E. faecalis and E. faecium; experiment: MIC broth microdilution, summary over enterococci; format: cell-based; settings: for MIC: read-out: MIC values against E. faecalis and E. faecium
# Protocol: as §1, §2, §3, §4, §5, §6, §7, §8
# [9] = system: S. pneumoniae and S. pyogenes isolates; experiment: MIC broth microdilution, summary over streptococci; format: cell-based; settings: read-out: MIC values against S. pneumoniae and S. pyogenes isolates
# Protocol: as §1, §2
# The test medium for all isolates was cation-adjusted Mueller Hinton broth (CAMHB; BD/BBL; Lot No. 8190586). […]
# MIC values were determined using a broth microdilution method as recommended by CLSI. […]
# as §8, with “Following incubation, the microplates were removed from the incubator and viewed from the bottom using a plate viewer.” left out
# [10] = Un-inoculated solubility control plate (drug precipitation); format: physicochemical; settings: for Precipitation in CAMHB in LHB: at 64 μg/mL in CAMHB in LHB
# Gram-positive cocci = experiment: MIC broth microdilution, overall summary; format: cell-based; settings: summary of MIC testing
# Protocol: as §1, §2, §3, §4, §5
# The daughter plates were prepared on the Biomek F/X instrument which transferred […] of drug solution from each well of the mother plate to each corresponding well of each daughter plate in a single step. […]
# as §8, with “Following incubation, the microplates were removed from the incubator and viewed from the bottom using a plate viewer.” left out
# [11] = system: E. faecalis ATCC 29212 VSE; settings: range in parentheses; cited from earlier work
# [12] = system: S. pneumoniae ATCC 49619 PISP; settings: range in parentheses; cited from earlier work
# [13] = Escherichia coli, ATCC25922, E. coli ATCC 25922, CAMHB, read-out: MIC
# [14] = E. faecalis ATCC 29212 VSE, CAMHB, read-out: MIC
# [15] = E. faecalis MMX 486 VRE, CAMHB, read-out: MIC
# [16] = E. faecium MMX 485 VRE, CAMHB, read-out: MIC
# [17] = E. faecium MMX 708 VSE, CAMHB, read-out: MIC
# [18] = S. aureus ATCC 29213 MSSA, CAMHB, read-out: MIC
# [19] = S. aureus MMX 8088 MRSA, CAMHB, read-out: MIC
# [20] = S. pneumoniae ATCC 49619 PISP, CAMHB with 3% lysed horse blood, read-out: MIC
# [21] = S. pyogenes ATCC 19615, CAMHB with 3% lysed horse blood, read-out: MIC
MIC (E. coli ATCC 25922 [1]; [13]) [µg/mL],"MIC [2, 14] [µg/mL]",MIC (E. faecalis MMX 486 VRE; [15]) [µg/mL],MIC (E. faecium MMX 485 VRE; [16]) [µg/mL],MIC (E. faecium MMX 708 VSE; [17]) [µg/mL],"MIC [3, 18] [µg/mL]",MIC (S. aureus MMX 8088 MRSA; [19]) [µg/mL],"MIC [4, 20] [µg/mL]",MIC (S. pyogenes ATCC 19615; [21]) [µg/mL],SMILES,CLSI quality control range (MIC) [5] [µg/mL],Precipitation in CAMHB in LHB [10],Activity among the evaluated analogs / against evaluated Gram-positive cocci (summary in words) (Gram-positive cocci),"MIC (E. coli ATCC 25922 [1]; Escherichia coli, ATCC25922) [µg/mL]",MIC [2] [µg/mL],MIC (E. faecalis MMX 486 VRE; VRE) [µg/mL],MIC (E. faecium MMX 485 VRE; VRE) [µg/mL],MIC (E. faecium MMX 708 VSE) [µg/mL],MIC [3] [µg/mL],MIC (S. aureus MMX 8088 MRSA; MRSA) [µg/mL],MIC [4] [µg/mL],further results
0.25,> 32,> 32,> 32,> 32,8,> 32,0.5,0.12,"CC(C)(O/N=C(\C(=O)N[C@@H]1C(=O)N2C(C(=O)[O-])=C(C[n+]3ccccc3)CS[C@H]12)c1csc(N)n1)C(=O)O [Ceftazidime, reference compound]",4 to 16,–,–,–,–,–,–,–,–,–,–,CLSI quality control range (MIC) (E. coli ATCC 25922 [6]): 0.06 to 0.5 µg/mL
> 64,16,16,8,16,16,16,0.25,0.25,C=C(NC(=O)c1csc(C2=N[C@@H]3c4csc(n4)[C@H]4NC(=O)c5csc(n5)[C@H]([C@](C)(O)[C@@H](C)O)NC(=O)C5CSC(=N5)/C(=C/C)NC(=O)[C@H]([C@@H](C)O)NC(=O)c5csc(n5)[C@]3(CC2)NC(=O)[C@H](C)NC(=O)C(=C)NC(=O)[C@H](C)NC(=O)[C@H]([C@@H](C)CC)N[C@@H]2C=Cc3c([C@H](C)O)cc(nc3[C@H]2O)C(=O)O[C@@H]4C)n1)C(=O)NC(=CNC(=O)c1cccc(/C=N/OC2O[C@H](CO)[C@@H](O)[C@H](O)[C@H]2O)c1)C(N)=O (stereo partly drawn) [RJS-16],–,distinct precipitation,least activity,–,–,–,–,–,–,–,–,"solubility at 24 h ([7]; aqueous 10 mM MOPS buffer, thermodynamic from solid, pH 7.2): 11 µg/mL; MIC (S. aureus isolates; across MSSA and MRSA isolates): 16 µg/mL; MIC ([8]; across the evaluated enterococci, VSE and VRE): 8 to 16 µg/mL; MIC ([9]; across evaluated streptococci): 0.25 µg/mL"
–,–,–,–,–,–,–,–,–,C=C(NC(=O)C(=C)NC(=O)c1csc(C2=N[C@@H]3c4csc(n4)[C@H]4NC(=O)c5csc(n5)[C@H]([C@](C)(O)[C@@H](C)O)NC(=O)[C@H]5CSC(=N5)/C(=C/C)NC(=O)[C@H]([C@@H](C)O)NC(=O)c5csc(n5)[C@]3(CC2)NC(=O)[C@H](C)NC(=O)C(=C)NC(=O)[C@H](C)NC(=O)[C@H]([C@@H](C)CC)N[C@@H]2C=Cc3c([C@H](C)O)cc(nc3[C@H]2O)C(=O)O[C@@H]4C)n1)C(N)=O [Thiostrepton],–,distinct precipitation,potent activity,> 64,0.12,0.12,0.06,0.12,0.06,0.12,< 0.001,"Solubility pH 7.2 [7]: 3.0 (±0.2) μg/mL; MIC (E. coli ATCC 25922 [1]; E. coli ATCC 25922, CAMHB): >64 µg/mL; MIC (S. pyogenes ATCC 19615): < 0.001 µg/mL; MIC (S. aureus isolates): 0.06 to 0.12 µg/mL; MIC values against MRSA relative to MSSA (S. aureus isolates; identical or within 2-fold, impact of methicillin resistance): ≤ 2 fold; VRE MIC values relative to VSE MIC values ([8]; impact of vancomycin resistance among enterococci): comparable; MIC [8]: 0.06 to 0.12 µg/mL; MIC [9]: ≤ 0.001 µg/mL; Precipitation in CAMHB ([10]; at 64 μg/mL in CAMHB): distinct precipitation"
–,–,–,–,–,–,–,–,–,"CN[C@H](CC(C)C)C(=O)N[C@H]1C(=O)N[C@@H](CC(N)=O)C(=O)N[C@H]2C(=O)N[C@H]3C(=O)N[C@H](C(=O)N[C@H](C(=O)O)c4cc(O)cc(O)c4-c4cc3ccc4O)[C@H](O)c3ccc(c(Cl)c3)Oc3cc2cc(c3O[C@@H]2O[C@H](CO)[C@@H](O)[C@H](O)[C@H]2O[C@H]2C[C@](C)(N)[C@H](O)[C@H](C)O2)Oc2ccc(cc2Cl)[C@H]1O [Vancomycin, reference compound]",0.5 to 2,–,–,> 64,2,> 32,> 32,0.25,1,1,0.12,MIC (S. pyogenes ATCC 19615): 0.25 µg/mL; CLSI quality control range (MIC) [11]: 1 to 4 µg/mL; CLSI quality control range (MIC) [12]: 0.12 to 0.5 µg/mL
